Results published in PMC6749370, “Antibacterial Evaluation, In Silico Characters and Molecular Docking of Schiff Bases Derived from 5-aminopyrazoles” (Molecules, 2019).
Converted amounts (≈) assume the structure as drawn. Marks after values point to notes of the source that are not given here.

Legend:
[1] = system: Enterococcus faecalis (Ef); test: Minimal inhibitory concentration against multi-drug resistant bacteria; assay type: cell-based; conditions: NA: No Activity
Experimental: (§1) In vitro antibacterial activities against multi-drug resistant bacteria (MDRB) of Schiff bases 14–25 were performed at botany and microbiology department, Faculty of Science, Al-Azhar University, Cairo, Egypt. The antibacterial potential of 14–25 were investigated towards the multi-drug resistant bacteria (MDRB). The results were summarized as the diameter of the inhibition zones in mm and minimal inhibitory concentration (MIC, µg/mL) values in Table 2.
(§2) The synthesized compounds, Schiff bases 14–25, were in vitro evaluation of their antibacterial properties against multi-drug resistant bacteria (MDRB). Examples of Gram-positive bacteria are Staphylococcus aureus (MRSA, Sa), Staphylococcus epidermis (Sp), and Enterococcus faecalis (Ef). Examples of Gram-negative bacteria are Acinetobacter baumannii (Ab), Enterobacter cloaca (Ecl), and Escherichia coli (Ec). All the tested strain was identified by Vitek®2 system. The multi-drug resistant to antibiotics such as Ampicillin, Cephalexin, Colisin, Ipemenem, and Meropenem was verified.

Escherichia coli (Ec) = test: as above; assay type: cell-based; conditions: NA: No Activity
Experimental: as §1, §2

[2] = system: Staphylococcus aureus (MRSA, Sa); test: as above; assay type: cell-based; conditions: NA: No Activity
Experimental: as §1, §2

[3] = system: Enterobacter cloaca (Ecl); test: as above; assay type: cell-based; conditions: NA: No Activity
Experimental: as §1, with “(MDRB).” for “(MDRB). The results were summarized as the diameter of the inhibition zones in mm and minimal inhibitory concentration (MIC, µg/mL) values in Table 2.”
as §2, with “system.” for “system. The multi-drug resistant to antibiotics such as Ampicillin, Cephalexin, Colisin, Ipemenem, and Meropenem was verified.”

[4] = system: Staphylococcus epidermis (Se); test: as above; assay type: cell-based; conditions: NA: No Activity
Experimental: as §1, with “(MDRB).” for “(MDRB). The results were summarized as the diameter of the inhibition zones in mm and minimal inhibitory concentration (MIC, µg/mL) values in Table 2.”
as §2, with “system.” for “system. The multi-drug resistant to antibiotics such as Ampicillin, Cephalexin, Colisin, Ipemenem, and Meropenem was verified.”

[5] = system: Acinetobacter baumannii (Ab); test: as above; assay type: cell-based; conditions: NA: No Activity
Experimental: as §1, with “(MDRB).” for “(MDRB). The results were summarized as the diameter of the inhibition zones in mm and minimal inhibitory concentration (MIC, µg/mL) values in Table 2.”
as §2, with “system.” for “system. The multi-drug resistant to antibiotics such as Ampicillin, Cephalexin, Colisin, Ipemenem, and Meropenem was verified.”

[6] = target: Staphylococcus aureus DNA gyrase (Staphylococcus aureus, UniProt P0A0K8+P20831); test: In vitro enzyme inhibition assay; assay type: biochemical; conditions: mean of three values, read-out: IC50 (Mean ± SEM) DNA Gyrase
Topoisomerase IV = Topoisomerase IV (Staphylococcus aureus, UniProt P0C1S7+P0C1U9); test: In vitro enzyme inhibition assay; assay type: biochemical

Row | MIC [1] [µg/mL] | MIC (Escherichia coli (Ec)) [µg/mL] | MIC [2] [µg/mL] | MIC [3] [µg/mL] | MIC [4] [µg/mL] | MIC [5] [µg/mL] | Minimal inhibitory concentration (MIC), Ec (Escherichia coli (Ec)) | Minimal inhibitory concentration (MIC), Ecl [3] | Minimal inhibitory concentration (MIC), Ef [1] | Compound | Minimal inhibitory concentration (MIC), Sa [2] | Minimal inhibitory concentration (MIC), Ab [5] | IC50 [6] [µM] | IC50 (Topoisomerase IV) [µM]
1 | 7.81 (≈ 23.6 µM) | 7.81 (≈ 23.6 µM) | 7.81 (≈ 23.6 µM) |  |  |  |  |  |  | O=C(O)c1cn(C2CC2)c2cc(N3CCNCC3)c(F)cc2c1=O [Ciprofloxacin, reference compound] |  |  |  | 
2 | 15.6 (≈ 38 µM) |  | 31.2 (≈ 75.9 µM) | 125 (≈ 304 µM) | 7.81 (≈ 19 µM) |  |  |  |  | COc1ccc(Nc2n[nH]c(/N=C/c3ccccc3)c2C(=O)Nc2ccccc2)cc1 [Compound 14] |  |  |  | 
3 | 31.2 (≈ 73.4 µM) | 125 (≈ 294 µM) | 62.5 (≈ 147 µM) | 62.5 (≈ 147 µM) | 15.6 (≈ 36.7 µM) | 62.5 (≈ 147 µM) |  |  |  | COc1ccc(Nc2n[nH]c(/N=C/c3ccc(C)cc3)c2C(=O)Nc2ccccc2)cc1 [Compound 15] | 62.50 µg/mL (≈ 147 µM) |  |  | 
4 | 62.5 (≈ 140 µM) | 125 (≈ 280 µM) | 31.2 (≈ 70.1 µM) | 62.5 (≈ 140 µM) | 7.81 (≈ 17.5 µM) | 15.6 (≈ 35 µM) |  |  |  | COc1ccc(Nc2n[nH]c(/N=C/c3ccc(Cl)cc3)c2C(=O)Nc2ccccc2)cc1 [Compound 16] |  | 15.62 * µg/mL |  | 
5 |  | 31.2 (≈ 72.8 µM) | 62.5 (≈ 146 µM) | 125 (≈ 291 µM) | 31.2 (≈ 72.8 µM) | 62.5 (≈ 146 µM) | 31.25 * µg/mL |  |  | COc1ccc(Nc2n[nH]c(/N=C/c3ccc(F)cc3)c2C(=O)Nc2ccccc2)cc1 [Compound 17] |  |  |  | 
6 | 15.6 (≈ 35.5 µM) | 62.5 (≈ 142 µM) | 31.2 (≈ 71.1 µM) | 125 (≈ 284 µM) | 15.6 (≈ 35.5 µM) | 62.5 (≈ 142 µM) |  |  |  | COc1ccc(Nc2n[nH]c(/N=C/c3ccc(C)cc3)c2C(=O)Nc2ccc(C)cc2)cc1 [Compound 19] |  |  |  | 
7 | 250 (≈ 544 µM) |  | 62.5 (≈ 136 µM) |  | 125 (≈ 272 µM) |  |  |  |  | COc1ccc(Nc2n[nH]c(/N=C/c3ccc(Cl)cc3)c2C(=O)Nc2ccc(C)cc2)cc1 [Compound 20] |  |  |  | 
8 |  |  | 125 (≈ 282 µM) |  | 62.5 (≈ 141 µM) |  |  |  |  | COc1ccc(Nc2n[nH]c(/N=C/c3ccc(F)cc3)c2C(=O)Nc2ccc(C)cc2)cc1 [Compound 21] |  |  |  | 
9 | 125 (≈ 280 µM) |  | 250 (≈ 561 µM) | 15.6 (≈ 35 µM) | 125 (≈ 280 µM) |  |  | 15.62 * µg/mL |  | COc1ccc(Nc2n[nH]c(/N=C/c3ccccc3)c2C(=O)Nc2ccc(Cl)cc2)cc1 [Compound 22] |  |  |  | 
10 | 7.81 (≈ 17 µM) |  | 31.2 (≈ 67.9 µM) | 62.5 (≈ 136 µM) | 15.6 (≈ 34 µM) |  |  |  | 7.81 * µg/mL | COc1ccc(Nc2n[nH]c(/N=C/c3ccc(C)cc3)c2C(=O)Nc2ccc(Cl)cc2)cc1 [Compound 23] |  |  |  | 
11 | 15.6 (≈ 32.5 µM) | 125 (≈ 260 µM) | 125 (≈ 260 µM) | 62.5 (≈ 130 µM) | 62.5 (≈ 130 µM) |  |  |  |  | COc1ccc(Nc2n[nH]c(/N=C/c3ccc(Cl)cc3)c2C(=O)Nc2ccc(Cl)cc2)cc1 [Compound 24] |  |  |  | 

Row | Compound | MIC [1] [µg/mL] | MIC (Escherichia coli (Ec)) [µg/mL] | MIC [2] [µg/mL] | MIC [3] [µg/mL] | MIC [4] [µg/mL] | MIC [5] [µg/mL] | Minimal inhibitory concentration (MIC), Ec (Escherichia coli (Ec)) | Minimal inhibitory concentration (MIC), Ecl [3] | Minimal inhibitory concentration (MIC), Ef [1] | Minimal inhibitory concentration (MIC), Sa [2] | Minimal inhibitory concentration (MIC), Ab [5] | IC50 [6] [µM] | IC50 (Topoisomerase IV) [µM]
12 | COc1ccc(Nc2n[nH]c(/N=C/c3ccccc3)c2C(=O)Nc2ccc(C)cc2)cc1 [Compound 18] | 31.2 (≈ 73.4 µM) | 250 (≈ 588 µM) | 15.6 (≈ 36.7 µM) | 62.5 (≈ 147 µM) | 7.81 (≈ 18.4 µM) | 15.6 (≈ 36.7 µM) |  |  |  | 15.62 * µg/mL | 15.62 * µg/mL | 1.68 ± 0.1 | 74.6 ± 1.2
